# Experimental data published in US9890139B2, “CYP17 inhibitors/antiandrogens” (Orion Corporation, priority 2013, dated 2018).
# Where two headings read alike, the source gives them in different places.
# Tests used:
# 17,20 lyase (CYP17) = molecular target: T1, 17,20 lyase (CYP17) (Homo sapiens, UniProt P05093); assay: 17,20 lyase (CYP17) inhibition, acetic acid release assay (AARA) on H295R cells; assay type: cell-based
# T1 construct: endogenous in cells; host or cells: H295R human adrenocortical carcinoma cells
# T1 sequence (P05093 1-508): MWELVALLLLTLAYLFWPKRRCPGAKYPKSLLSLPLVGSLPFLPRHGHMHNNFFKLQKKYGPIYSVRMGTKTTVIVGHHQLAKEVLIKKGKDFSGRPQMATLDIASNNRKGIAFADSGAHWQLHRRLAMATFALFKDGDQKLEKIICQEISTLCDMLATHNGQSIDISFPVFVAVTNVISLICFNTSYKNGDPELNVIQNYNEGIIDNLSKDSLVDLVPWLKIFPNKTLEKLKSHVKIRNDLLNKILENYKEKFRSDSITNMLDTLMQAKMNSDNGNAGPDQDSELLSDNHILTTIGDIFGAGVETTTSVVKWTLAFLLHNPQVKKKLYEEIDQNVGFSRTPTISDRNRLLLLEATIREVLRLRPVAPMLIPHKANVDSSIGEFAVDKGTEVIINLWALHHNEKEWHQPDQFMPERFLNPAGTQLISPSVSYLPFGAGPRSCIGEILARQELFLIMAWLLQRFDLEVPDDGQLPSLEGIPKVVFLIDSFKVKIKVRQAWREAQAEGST
# Method: The ability of the test compounds to inhibit 17,20 lyase catalysed conversion of 17α-hydroxypregnenolone to dehydroepiandrosterone and acetic acid was measured by acetic acid release assay (AARA) on human H295R adrenocortical carcinoma cell line (Grigoryev, D. N. et al., Analytical Biochemistry 1999; 267:319-330). […] The final DMSO concentration was 1%. Cell culture medium was extracted with dextran-coated charcoal suspension (Isomaa, V. et al., Endocrinology 1982; 111(3):833-843). ^3H-acetic acid was determined by mixing 100 μl of supernatant fraction in 200 μl of scintillation fluid (OptiPhase SuperMix, Perkin Elmer). Radioactivity was measured using a Microbeta scintillation counter (1450 MicroBeta Trilux, Wallac). All the test compounds were studied in quadruplicates.
# full-length human AR = molecular target: T2, full-length human AR (Homo sapiens, UniProt P10275); assay: AR antagonism, reporter gene assay in hAR/HEK293 cells; assay type: cell-based; settings: HEK293 cells stably transfected with full-length human AR and androgen responsive luciferase reporter; co-treated with submaximal testosterone (usually 0.45 nM); 1% DMSO; triplicates
# T2 construct: expression vector encoding full-length human AR; expressed in transfected cells; host or cells: HEK293 (hAR/HEK293 cells)
# T2 sequence (P10275 1-920): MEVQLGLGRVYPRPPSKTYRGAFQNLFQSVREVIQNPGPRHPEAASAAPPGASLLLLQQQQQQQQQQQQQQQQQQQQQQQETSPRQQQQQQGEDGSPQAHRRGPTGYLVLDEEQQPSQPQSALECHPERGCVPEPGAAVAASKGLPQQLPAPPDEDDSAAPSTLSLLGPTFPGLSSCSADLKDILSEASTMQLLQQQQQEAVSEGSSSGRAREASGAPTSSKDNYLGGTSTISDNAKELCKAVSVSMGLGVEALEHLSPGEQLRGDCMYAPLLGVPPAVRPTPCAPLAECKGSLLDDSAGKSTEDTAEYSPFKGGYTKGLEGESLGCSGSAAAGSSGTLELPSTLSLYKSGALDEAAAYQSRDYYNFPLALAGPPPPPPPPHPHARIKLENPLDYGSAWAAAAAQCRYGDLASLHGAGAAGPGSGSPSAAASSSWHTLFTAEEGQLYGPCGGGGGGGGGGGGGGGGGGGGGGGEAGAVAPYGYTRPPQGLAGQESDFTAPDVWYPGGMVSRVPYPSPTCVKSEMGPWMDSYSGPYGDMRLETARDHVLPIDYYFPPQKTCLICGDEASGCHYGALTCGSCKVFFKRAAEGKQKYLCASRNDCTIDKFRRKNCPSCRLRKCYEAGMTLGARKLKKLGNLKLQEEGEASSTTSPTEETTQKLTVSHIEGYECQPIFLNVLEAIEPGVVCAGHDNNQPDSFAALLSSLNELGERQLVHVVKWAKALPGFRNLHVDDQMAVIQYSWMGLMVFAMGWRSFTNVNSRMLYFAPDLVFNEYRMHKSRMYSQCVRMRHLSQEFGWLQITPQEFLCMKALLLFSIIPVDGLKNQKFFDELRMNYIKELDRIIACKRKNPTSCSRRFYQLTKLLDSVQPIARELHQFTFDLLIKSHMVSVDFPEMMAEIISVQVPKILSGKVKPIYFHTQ
# Method: Antagonism of test compounds for AR was measured by reporter gene assay in human embryonic kidney (HEK293) cells stably transfected with an expression vector encoding full-length human AR and androgen responsive luciferase reporter gene construct (hAR/HEK293 cells). To determine antagonism for hAR, the cells were treated simultaneously with increasing concentrations of the test compound and submaximal concentration of testosterone (usually 0.45 nM). The final DMSO concentration was 1%. All test compounds were studied in triplicates. The cells were incubated for […] before measurement of luciferase activity using Luciferase Assay System (Promega Corporation).
Compound,"IC50 (17,20 lyase (CYP17))",IC50 (full-length human AR),"IC50 (17,20 lyase (CYP17); human H295R adrenocortical carcinoma cells, overnight (16-19 h) with 17α-[21-3H]hydroxypregnenolone, 3H-acetic acid release, 1% DMSO, quadruplicates, read-out: CYP17 inhibition IC50)"
"CCN(c1ccc(C#N)c(C(F)(F)F)c1)C1CC=C(c2cncn2C(C)C)C1 (single isomer, unassigned) [Ex. 51 enantiomer 2, 4-(Ethyl(3-(1-isopropyl-1H-imidazol-5-yl)cyclopent-3-enyl)amino)-2-(trifluoromethyl)benzonitrile]",0.166 µM,0.017 µM,
"CCN(c1ccc(C#N)c(Cl)c1C)C1CCCC(n2ccnc2)C1 (single isomer, unassigned) [Ex. 13, 4-((3-(1H-imidazol-1-yl)cyclohexyl)(ethyl)amino)-2-chloro-3-methylbenzonitrile]",0.092 µM,0.06 µM,
"CCN(c1ccc(C#N)c(Cl)c1)C1CC=C(c2cncn2CC)C1 (racemic) [Ex. 227 racemate, 2-Chloro-4-(ethyl(3-(1-ethyl-1H-imidazol-5-yl)cyclopent-3-en-1-yl)amino)-benzonitrile]",0.019 µM,0.057 µM,
"CCn1cncc1C1=CCC(N(CC2CC2)c2ccc(C#N)c(C(F)(F)F)c2)C1 (racemic) [Ex. 226 racemate, 4-((Cyclopropylmethyl)(3-(1-ethyl-1H-imidazol-5-yl)cyclopent-3-en-1-yl)-amino)-2-(trifluoromethyl)benzonitrile]",0.043 µM,0.029 µM,
"Cc1nc(N(C)C2C=C(n3ccnc3)CCC2(C)C)ccc1[N+](=O)[O-] (single isomer, unassigned) [Ex. 203 enantiomer 1, N-[3-(1H-Imidazol-1-yl)-6,6-dimethylcyclohex-2-enyl]-N,6-dimethyl-5-nitropyridin-2-amine]",,0.017 µM,0.016 µM
"CCN(c1ccc(C#N)c(C(F)(F)F)c1)[C@H]1CCC[C@@H](c2ccncc2)C1 (relative stereo) [Ex. 61, cis-4-(Ethyl(3-(pyridin-4-yl)cyclohexyl)amino)-2-(trifluoromethyl)benzonitrile]",0.108 µM,0.035 µM,
"CCN(c1ccc(C#N)c(C(F)(F)F)c1)C1CC(CO)=C(n2ccnc2)C1(C)C (single isomer, unassigned) [Ex. 270 enantiomer 1, 4-(Ethyl(4-(hydroxymethyl)-3-(1H-imidazol-1-yl)-2,2-dimethylcyclopent-3-en-1-yl)amino)-2-(trifluoromethyl)benzonitrile]",0.321 µM,0.056 µM,
"CCN(c1ccc(C#N)c(C(F)(F)F)c1)C1CCC=C(c2cncn2CC)C1 (single isomer, unassigned; isomer 4) [Ex. 208 1,5-isomer, 4-(ethyl(3-(1-ethyl-1H-imidazol-5-yl)cyclohex-3-en-1-yl)-amino)-2-(trifluoromethyl)benzonitrile]",0.137 µM,0.034 µM,
"CN(c1ccc(C#N)c(Cl)c1)[C@@H]1C=C(n2ccnc2)[C@H](O)CC1(C)C (single isomer, unassigned; enantiomer 1) [Ex. 253(b), cis-2-Chloro-4-{[4-hydroxy-3-(1H-imidazol-1-yl)-6,6-dimethylcyclohex-2-enyl](methyl)amino}benzonitrile (enantiomer 1)]",0.124 µM,0.14 µM,
"CCN(c1ccc(C#N)c(Cl)c1)C1C=C(n2ccnc2)CCC1(C)C (single isomer, unassigned; enantiomer 1) [Ex. 21, 4-((3-(1H-imidazol-1-yl)-6,6-dimethylcyclohex-2-enyl)(ethyl)amino)-2-chlorobenzonitrile (enantiomer 1)]",0.076 µM,0.019 µM,
